Results published in ChEMBL document CHEMBL1137379, “9-{[3-fluoro-2-(hydroxymethyl)cyclopropylidene]methyl}adenines and -guanines. Synthesis and antiviral activity of all stereoisomers1” (J Med Chem, 2006).
Calls of active or inactive are those of the source. The calls are words filed in the database; no cut-off is given here.

Assays:
[1] = biological target: T1, Adenosine deaminase (Bos taurus) (UniProt P56658); experiment: Activity at calf intestine ADA by adenosine deaminase assay after 24 hrs
T1 sequence (whole entry): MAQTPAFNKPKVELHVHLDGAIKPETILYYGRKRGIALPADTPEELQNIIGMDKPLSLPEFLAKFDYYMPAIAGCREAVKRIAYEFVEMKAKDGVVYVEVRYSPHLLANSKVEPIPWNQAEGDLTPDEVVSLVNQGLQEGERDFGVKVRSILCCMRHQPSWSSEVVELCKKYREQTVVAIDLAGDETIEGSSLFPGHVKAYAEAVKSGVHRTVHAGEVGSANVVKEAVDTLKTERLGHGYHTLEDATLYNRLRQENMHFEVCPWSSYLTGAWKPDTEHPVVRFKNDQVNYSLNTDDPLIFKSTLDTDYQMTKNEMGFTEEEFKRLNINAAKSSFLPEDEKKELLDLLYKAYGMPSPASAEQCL

[2] = biological target: T1, Adenosine deaminase (Bos taurus); experiment: Activity at calf intestine ADA by adenosine deaminase assay after 48 hrs
[3] = tested on: Human alphaherpesvirus 1; experiment: Inhibition of HSV1 replication in BSC1 cells by ELISA; format: functional, organism-based; settings: Human alphaherpesvirus 1, BSC-1
[4] = tested on: KB; experiment: Cytotoxicity against KB cells; format: functional; settings: Homo sapiens
[5] = tested on: Human gammaherpesvirus 4; experiment: Inhibition of EBV replication in Daudi cells by viral capsid antigen-ELISA; format: functional, organism-based; settings: human gammaherpesvirus 4, Daudi
[6] = tested on: Daudi; experiment: Cytotoxicity against Daudi cells; format: functional; settings: Homo sapiens
[7] = tested on: Human betaherpesvirus 5; experiment: Inhibition of HCMV AD169 replication in HFF cells by cytopathic effect assay; format: functional, organism-based; settings: Human betaherpesvirus 5, AD169, HFF
[8] = tested on: HFF; experiment: Cytotoxicity against HFF cell by neutral red uptake assay; format: functional; settings: Homo sapiens
[9] = tested on: Human gammaherpesvirus 4; experiment: Inhibition of EBV replication in H1 cells by DNA hybridization assay; format: functional, organism-based; settings: human gammaherpesvirus 4, H1
[10] = tested on: Human betaherpesvirus 5; experiment: Inhibition of HCMV towne replication in HFF cells by plaque reduction assay; format: functional, organism-based; settings: Human betaherpesvirus 5, Towne
[11] = tested on: Hepatitis B virus; experiment: Inhibition of HBV replication in 2.2.15 cells by DNA hybridization assay; format: functional, organism-based; settings: HepG2 2.2.15
[12] = tested on: HepG2; experiment: Cytotoxicity against 2.2.15 cells; format: functional; settings: Homo sapiens
[13] = tested on: Human immunodeficiency virus 1; experiment: Inhibition of HIV1 LAI replication in MT2 cells by cytopathic effect assay; format: functional, organism-based; settings: Human immunodeficiency virus 1, LAI
[14] = tested on: MT2; experiment: Cytotoxicity against MT2 cells; format: functional; settings: Homo sapiens

Nc1ncnc2c1ncn2/C=C1/[C@@H](CO)[C@H]1F (relative stereo)
Activity [1]: 50%

Nc1ncnc2c1ncn2/C=C1/[C@@H](F)[C@@H]1CO (relative stereo)
Activity [1]: 50%

Nc1ncnc2c1ncn2/C=C1/[C@@H](F)[C@H]1CO (relative stereo)
Activity [1]: 50%

Nc1ncnc2c1ncn2/C=C1\[C@H](F)[C@H]1CO (relative stereo)
Activity [2]: inactive

Nc1nc2c(ncn2COCCO)c(=O)[nH]1 [ACYCLOVIR]
EC50 [3]: 3.5 µM | CC50 [4]: > 100 µM | EC50 [5]: 330 nM | CC50 [6]: > 100 µM

Nc1nc2c(ncn2COC(CO)CO)c(=O)[nH]1 [GANCICLOVIR]
EC50 [7]: 150 nM | CC50 [8]: > 100 µM | EC50 [9]: 5 µM | EC50 [10]: 1800 nM

Nc1ccn([C@@H]2CS[C@H](CO)O2)c(=O)n1 [LAMIVUDINE]
EC50 [11]: 20 nM | CC50 [12]: > 100 µM

Cc1cn([C@H]2C[C@H](N=[N+]=[N-])[C@@H](CO)O2)c(=O)[nH]c1=O [ZIDOVUDINE]
EC50 [13]: 20 nM | CC50 [14]: > 10 µM
